From patent US20060052303A1, “Use of thyrotropin for regeneration of bone” (priority 2004, published 2006)

Legend:
[1] = obtained from the Scripps Institute; cited from earlier work
thyroid = conditions: in rats; cited from earlier work
[2] = test system: ovariectomized (OVX) rats; test: Bone restoration study in ovariectomized rats with native rat TSH (Example 3B); assay type: in vivo
Description: To confirm that TSH has an anabolic effect on bone, a restoration study was performed, Native rat TSH was administered seven months after ovariectomy essentially following a similar dose and dosing regimen as described in Example 2B except that administration of TSH was extended until 16 weeks.
Twelve animals were sham operated, while forty eight were ovariectomized (OVX) bilaterally by abdominal approach. Treatment started six weeks after ovariectomy as follows: (1) SHAM (n=12); (2) OVX+vehicle (n=12); (3) OVX+0.01 μg (n=12); (3) OVX+0.1 μg (n=12); and (4) OVX+0.3 μg (n=12).
Bone mineral density monitoring in vivo and ex vivo and serum and urine biochemical analyses were performed essentially as described in Example 3A. Eight-month old rats were ovariectomized and then left for seven months to lose bone. Therapy was then started and continued for 16 weeks and BMD was measured both in vivo and ex vivo, and microCT and serum biochemistry were performed.

OVX rats = test: Treatment of osteopenia in OVX rats using rat TSH (Example 2B); assay type: in vivo
Description: A similar study following essentially the same dosing regimens. was performed using the native rat TSH in OVX rats. […] Rat TSH with a specific activity of approximately 90 lU/mg was obtained from the Scripps Institute. Bone mineral monitoring in vivo and serum and urine biochemical analyses were performed essentially as described in Example 3A.
Biochemical assays—Urinary levels of deoxypyridinoline cross-links and creatinine (DPD and Cr, respectively) are analyzed in duplicate using rat ELISA kits from Metrobiosystems (Mountain View, Calif., USA). Serum levels of osteocalcin (OSC) are measured using a rat sandwich ELISA kit from Biomedical Technologies (Stroughton, Mass., USA). The manufacturer's protocols are followed, and all samples are assayed in duplicate. A standard curve is generated from each kit, and the absolute concentrations are extrapolated from the standard curve. […]
The complete secondary spongiosa of the proximal tibia is evaluated, thereby completely avoiding sampling errors incurred by random deviations of a single section. […] From the binarized images, structural indices are assessed with three-dimensional (3D) techniques for trabecular bone.
Relative bone volume, trabecular number, thickness, and separation are calculated by measuring 3D distances directly in the trabecular network and taking the mean over all voxels.
Bone surface is calculated from a tetrahedron meshing technique. By displacing the surface of the structure in infinitesimal amounts, the structure model index (SMI) is calculated. The SMI quantifies the plate versus rod characteristics of trabecular bone, in which an SMI of 0 pertains to a purely plate-shaped bone, an SMI of 3 designates a purely rod-like bone, and values between stand for mixtures of plates and rods. Furthermore, connectivity density based on the Euler number is determined. In addition, a 3D cubical voxel model of bone is built, and cortical thickness is measured.

[3] = in particular with 0.1 and 0.3 μg/rat

rat TSH: native rat TSH obtained from the Scripps Institute
specific activity [1]: approximately 90 lU/mg
effectiveness in stimulating thyroid hormone production compared to human recombinant TSH (thyroid): 10-20 times
BMD values of hind limbs in vivo ([2]; 0.01 μg/rat, 12 and 16 weeks time points): did not induce a measurable effect
cortical thickness above ovariectomized rats ([2]; 0.1 μg/rat): 14%
cortical thickness above sham animal values ([2]; 0.1 μg/rat): ~10%
ex vivo proximal femur BMD (DEXA) ([2]; 0.3 μg): increased
cortical thickness (microCT) ([2]; 0.1 and 0.3 μg/rat): increased
BMD values of hind limbs in vivo ([2]; 0.1 and 0.3 μg/rat, FIG. 14): increased
bone volume of long bones and the spine (microCT, trabecular bone ex vivo) ([2]; all three doses tested (0.01, 0.1, 0.3 μg)): increased
ex vivo lumbar spine BMD [2, 3]: increased
ex vivo tibia BMD [2, 3]: increased
trabecular number (microCT) ([2]; lesser extent than trabecular thickness): increased
T3 and T4 serum levels ([2]; rat, in vivo): no measurable increase
ex vivo distal femur BMD (DEXA) ([2]; rat, in vivo): slightly increased
ex vivo total femur BMD (DEXA) ([2]; rat, in vivo): slightly increased
trabecular thickness (microCT) ([2]; vs sham and ovariectomized rats): significantly increased
bone loss associated with ovariectomy (OVX rats; 0.01, 0.1, 0.3 μg per rat, in vivo total body, hind limbs, lumbar BMD, ex vivo proximal femur and tibia BMD, microCT): effective in preventing the bone loss
serum collagen C-telopeptide (OVX rats; indicates anti-resorptive activity): reduction
effective concentration in the rat relative to human TSH (OVX rats; rat, in vivo): effective in the rat at lower concentration than human TSH
